According to the NIST ThermoML archive (doi:10.1021/je3011979):
± gives the expanded uncertainty stated by the source.

Key:
[1] = xn = mol fraction of the nth substance listed; conditions: 101 kPa, Liquid, Vibrating tube method
[2] = excess molar enthalpy (molar enthalpy of mixing); xn = mol fraction of the nth substance listed; conditions: 101 kPa, Liquid, Calvet calorimetry

CCCOC(C)=O [propyl ethanoate] + CCCCCCCC
Conditions | excess molar enthalpy [kcal/mol] | mass density [kg/m3]
[1], 291.15 K, x1 = 0.012 | – | 705.7 ± 0.3
[1], 291.15 K, x1 = 0.0405 | – | 708.9 ± 0.3
[1], 291.15 K, x1 = 0.1465 | – | 721.9 ± 0.3
[1], 291.15 K, x1 = 0.1905 | – | 727.8 ± 0.3
[1], 291.15 K, x1 = 0.2679 | – | 738.6 ± 0.3
[1], 291.15 K, x1 = 0.3573 | – | 752.2 ± 0.3
[1], 291.15 K, x1 = 0.4206 | – | 762.5 ± 0.3
[1], 291.15 K, x1 = 0.4808 | – | 772.7 ± 0.3
[1], 291.15 K, x1 = 0.5357 | – | 782.6 ± 0.3
[1], 291.15 K, x1 = 0.6206 | – | 798.8 ± 0.3
[1], 291.15 K, x1 = 0.6668 | – | 808.1 ± 0.3
[1], 291.15 K, x1 = 0.7082 | – | 816.9 ± 0.3
[1], 291.15 K, x1 = 0.7644 | – | 829.3 ± 0.3
[1], 291.15 K, x1 = 0.8181 | – | 841.9 ± 0.3
[1], 291.15 K, x1 = 0.8638 | – | 853.1 ± 0.3
[1], 291.15 K, x1 = 0.9109 | – | 865.1 ± 0.4
[1], 291.15 K, x1 = 0.9798 | – | 883.9 ± 0.4
[1], 291.15 K, x1 = 1 | – | 889.6 ± 0.2
[1], 298.15 K, x1 = 0.0149 | – | 700.3 ± 0.3
[1], 298.15 K, x1 = 0.0603 | – | 705.4 ± 0.3
[1], 298.15 K, x1 = 0.1039 | – | 710.8 ± 0.3
[1], 298.15 K, x1 = 0.2154 | – | 725.3 ± 0.3
[1], 298.15 K, x1 = 0.2536 | – | 730.6 ± 0.3
[1], 298.15 K, x1 = 0.3283 | – | 741.5 ± 0.3
[1], 298.15 K, x1 = 0.3895 | – | 751.1 ± 0.3
[1], 298.15 K, x1 = 0.4733 | – | 765 ± 0.3
[1], 298.15 K, x1 = 0.5382 | – | 776.6 ± 0.3
[1], 298.15 K, x1 = 0.5953 | – | 787.3 ± 0.3
[1], 298.15 K, x1 = 0.6543 | – | 799 ± 0.3
[1], 298.15 K, x1 = 0.7043 | – | 809.4 ± 0.3
[1], 298.15 K, x1 = 0.7628 | – | 822.2 ± 0.3
[1], 298.15 K, x1 = 0.8145 | – | 834.2 ± 0.3
[1], 298.15 K, x1 = 0.862 | – | 845.6 ± 0.3
[1], 298.15 K, x1 = 0.9221 | – | 860.9 ± 0.4
[1], 298.15 K, x1 = 0.9349 | – | 864.3 ± 0.4
[1], 298.15 K, x1 = 1 | – | 882.5 ± 0.2
[1], 318.15 K, x1 = 0.044 | – | 687.1 ± 0.3
[1], 318.15 K, x1 = 0.0919 | – | 692.5 ± 0.3
[1], 318.15 K, x1 = 0.1675 | – | 701.7 ± 0.3
[1], 318.15 K, x1 = 0.2438 | – | 711.7 ± 0.3
[1], 318.15 K, x1 = 0.3148 | – | 721.6 ± 0.3
[1], 318.15 K, x1 = 0.3866 | – | 732.3 ± 0.3
[1], 318.15 K, x1 = 0.4471 | – | 741.8 ± 0.3
[1], 318.15 K, x1 = 0.5188 | – | 753.7 ± 0.3
[1], 318.15 K, x1 = 0.5695 | – | 762.8 ± 0.3
[1], 318.15 K, x1 = 0.6293 | – | 773.9 ± 0.3
[1], 318.15 K, x1 = 0.6793 | – | 783.8 ± 0.3
[1], 318.15 K, x1 = 0.7422 | – | 796.8 ± 0.3
[1], 318.15 K, x1 = 0.7792 | – | 804.8 ± 0.3
[1], 318.15 K, x1 = 0.8435 | – | 819.5 ± 0.3
[1], 318.15 K, x1 = 0.8743 | – | 826.9 ± 0.3
[1], 318.15 K, x1 = 0.9284 | – | 840.5 ± 0.4
[1], 318.15 K, x1 = 1 | – | 859.8 ± 0.2
[1], 328.15 K, x1 = 0.0249 | – | 676.7 ± 0.3
[1], 328.15 K, x1 = 0.1032 | – | 685.4 ± 0.3
[1], 328.15 K, x1 = 0.1801 | – | 694.6 ± 0.3
[1], 328.15 K, x1 = 0.2554 | – | 704.4 ± 0.3
[1], 328.15 K, x1 = 0.3244 | – | 713.9 ± 0.3
[1], 328.15 K, x1 = 0.4 | – | 725 ± 0.3
[1], 328.15 K, x1 = 0.4761 | – | 737 ± 0.3
[1], 328.15 K, x1 = 0.5341 | – | 746.7 ± 0.3
[1], 328.15 K, x1 = 0.5975 | – | 757.9 ± 0.3
[1], 328.15 K, x1 = 0.6603 | – | 769.7 ± 0.3
[1], 328.15 K, x1 = 0.7147 | – | 780.7 ± 0.3
[1], 328.15 K, x1 = 0.7686 | – | 791.9 ± 0.3
[1], 328.15 K, x1 = 0.8149 | – | 802.1 ± 0.3
[1], 328.15 K, x1 = 0.8651 | – | 813.8 ± 0.3
[1], 328.15 K, x1 = 0.9233 | – | 828 ± 0.3
[1], 328.15 K, x1 = 0.9404 | – | 832.4 ± 0.4
[1], 328.15 K, x1 = 1 | – | 848.3 ± 0.2
[2], 291.15 K, x1 = 0.0879 | 0.109 ± 0.00167 | –
[2], 291.15 K, x1 = 0.1784 | 0.183 ± 0.00191 | –
[2], 291.15 K, x1 = 0.2664 | 0.2424 ± 0.00215 | –
[2], 291.15 K, x1 = 0.3472 | 0.2808 ± 0.00239 | –
[2], 291.15 K, x1 = 0.4208 | 0.3023 ± 0.00263 | –
[2], 291.15 K, x1 = 0.486 | 0.3102 ± 0.00263 | –
[2], 291.15 K, x1 = 0.5436 | 0.3088 ± 0.00263 | –
[2], 291.15 K, x1 = 0.5927 | 0.3004 ± 0.00263 | –
[2], 291.15 K, x1 = 0.618 | 0.2913 ± 0.00239 | –
[2], 291.15 K, x1 = 0.6703 | 0.2722 ± 0.00239 | –
[2], 291.15 K, x1 = 0.7256 | 0.2438 ± 0.00215 | –
[2], 291.15 K, x1 = 0.7843 | 0.206 ± 0.00191 | –
[2], 291.15 K, x1 = 0.8412 | 0.164 ± 0.00191 | –
[2], 291.15 K, x1 = 0.8983 | 0.112 ± 0.00167 | –
[2], 291.15 K, x1 = 0.9546 | 0.0557 ± 0.00143 | –
[2], 298.15 K, x1 = 0.0883 | 0.103 ± 0.00143 | –
[2], 298.15 K, x1 = 0.1747 | 0.174 ± 0.00191 | –
[2], 298.15 K, x1 = 0.2568 | 0.2309 ± 0.00215 | –
[2], 298.15 K, x1 = 0.3398 | 0.2701 ± 0.00239 | –
[2], 298.15 K, x1 = 0.4117 | 0.2913 ± 0.00239 | –
[2], 298.15 K, x1 = 0.4788 | 0.3004 ± 0.00263 | –
[2], 298.15 K, x1 = 0.5346 | 0.2985 ± 0.00239 | –
[2], 298.15 K, x1 = 0.5849 | 0.2913 ± 0.00239 | –
[2], 298.15 K, x1 = 0.6055 | 0.2866 ± 0.00239 | –
[2], 298.15 K, x1 = 0.655 | 0.2722 ± 0.00239 | –
[2], 298.15 K, x1 = 0.7074 | 0.2507 ± 0.00215 | –
[2], 298.15 K, x1 = 0.7607 | 0.222 ± 0.00215 | –
[2], 318.15 K, x1 = 0.0767 | 0.0942 ± 0.00167 | –
[2], 318.15 K, x1 = 0.1676 | 0.177 ± 0.00191 | –
[2], 318.15 K, x1 = 0.2591 | 0.2433 ± 0.00215 | –
[2], 318.15 K, x1 = 0.3352 | 0.2818 ± 0.00239 | –
[2], 318.15 K, x1 = 0.4086 | 0.305 ± 0.00263 | –
[2], 318.15 K, x1 = 0.4719 | 0.3117 ± 0.00263 | –
[2], 318.15 K, x1 = 0.5293 | 0.3098 ± 0.00263 | –
[2], 318.15 K, x1 = 0.5791 | 0.3004 ± 0.00263 | –
[2], 318.15 K, x1 = 0.5859 | 0.2983 ± 0.00263 | –
[2], 318.15 K, x1 = 0.6316 | 0.2847 ± 0.00239 | –
[2], 318.15 K, x1 = 0.6848 | 0.2648 ± 0.00239 | –
[2], 318.15 K, x1 = 0.7377 | 0.2392 ± 0.00215 | –
[2], 318.15 K, x1 = 0.7936 | 0.2065 ± 0.00191 | –
[2], 318.15 K, x1 = 0.8521 | 0.163 ± 0.00191 | –
[2], 318.15 K, x1 = 0.9064 | 0.114 ± 0.00167 | –
[2], 318.15 K, x1 = 0.9555 | 0.0595 ± 0.00167 | –
